Among the data in patent US8466193B2, “Selective inhibitors of histone deacetylase” (Pharmacyclics, Inc., priority 2008, dated 2013) are IC50 and GI50 values, retold here.

For experiment [1], the target named is HDAC1 (Homo sapiens, UniProt Q13547). The experiment in a line: Histone deacetylase activity, continuous trypsin-coupled assay. Type of experiment: biochemical. As to conditions: 15 minutes preincubation; substrate acetyl-Gly-Ala-(N-acetyl-Lys)-AMC. The protocol: (§1) HDAC activity was measured using a continuous trypsin-coupled assay that has been described in detail previously (US 20070281934; Schultz et. al., Biochemistry, 43 (34), 11083-11091, 2004; Kim et al. (2006), Methods Mol. Biol., 325:273-283). For inhibitor characterization, measurements were performed in a reaction volume of 100 μL using 96-well assay plates in a fluorescence plate reader. For each isozyme, the HDAC protein in reaction buffer (50 mM HEPES, 100 mM KCl, 0.001% Tween-20, 5% DMSO, pH 7.4, supplemented with bovine serum albumin at concentrations of 0-0.05%, was mixed with inhibitor at various concentrations and allowed to incubate for 15 minutes. Trypsin was added to a final concentration of 50 nM, and acetyl-Gly-Ala-(N-acetyl-Lys)-AMC was added to a final concentration of 25-100 μM to initiate the reaction. After a 30 minute lag time, the fluorescence was measured over a 30 minute time frame using an excitation wavelength of 355 nm and a detection wavelength of 460 nm. The increase in fluorescence with time was used as the measure of the reaction rate. Inhibition constants Ki(app) were obtained using the program BatchKi (Biokin, Pullman, Wash.).

The target in experiment [2] is T1, HDAC6 (Homo sapiens, UniProt Q9UBN7).
T1 sequence (Q9UBN7 1-1215): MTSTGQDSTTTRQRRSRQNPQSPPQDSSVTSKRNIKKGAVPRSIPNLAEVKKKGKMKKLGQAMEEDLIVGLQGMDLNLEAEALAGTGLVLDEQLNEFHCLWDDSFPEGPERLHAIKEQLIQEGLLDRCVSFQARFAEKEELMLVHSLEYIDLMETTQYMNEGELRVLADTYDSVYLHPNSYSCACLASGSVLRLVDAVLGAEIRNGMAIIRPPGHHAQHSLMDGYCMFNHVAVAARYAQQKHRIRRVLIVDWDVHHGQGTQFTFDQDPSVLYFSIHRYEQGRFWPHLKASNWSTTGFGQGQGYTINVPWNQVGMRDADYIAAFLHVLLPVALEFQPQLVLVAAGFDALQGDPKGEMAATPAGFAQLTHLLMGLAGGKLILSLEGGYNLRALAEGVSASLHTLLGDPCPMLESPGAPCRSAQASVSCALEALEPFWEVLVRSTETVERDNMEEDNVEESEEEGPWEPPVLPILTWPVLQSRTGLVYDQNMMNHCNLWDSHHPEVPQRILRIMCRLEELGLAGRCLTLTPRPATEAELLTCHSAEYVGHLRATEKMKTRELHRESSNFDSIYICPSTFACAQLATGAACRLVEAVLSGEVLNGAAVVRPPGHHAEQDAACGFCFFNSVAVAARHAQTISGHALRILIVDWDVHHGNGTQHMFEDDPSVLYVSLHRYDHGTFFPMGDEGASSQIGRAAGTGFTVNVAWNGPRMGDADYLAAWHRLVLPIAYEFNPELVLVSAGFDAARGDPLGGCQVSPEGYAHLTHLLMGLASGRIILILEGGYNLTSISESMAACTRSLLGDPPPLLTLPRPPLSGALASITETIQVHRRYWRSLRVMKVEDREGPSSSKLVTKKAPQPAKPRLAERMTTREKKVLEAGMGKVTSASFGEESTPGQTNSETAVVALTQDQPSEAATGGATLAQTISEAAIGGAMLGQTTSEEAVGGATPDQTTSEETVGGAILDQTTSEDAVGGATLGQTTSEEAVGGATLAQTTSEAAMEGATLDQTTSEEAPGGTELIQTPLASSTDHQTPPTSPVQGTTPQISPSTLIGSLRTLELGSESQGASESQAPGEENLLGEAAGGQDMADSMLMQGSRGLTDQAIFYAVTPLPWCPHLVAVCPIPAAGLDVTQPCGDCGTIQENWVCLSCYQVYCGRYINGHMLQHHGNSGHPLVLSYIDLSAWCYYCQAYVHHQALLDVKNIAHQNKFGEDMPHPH
Described as above. Type of experiment: biochemical. As to conditions: 15 minutes preincubation; substrate acetyl-Gly-Ala-(N-acetyl-Lys)-AMC. How it is done: as §1

The target in experiment [3] is T2, HDAC8 (Homo sapiens, UniProt Q9BY41).
T2 sequence (Q9BY41 1-377): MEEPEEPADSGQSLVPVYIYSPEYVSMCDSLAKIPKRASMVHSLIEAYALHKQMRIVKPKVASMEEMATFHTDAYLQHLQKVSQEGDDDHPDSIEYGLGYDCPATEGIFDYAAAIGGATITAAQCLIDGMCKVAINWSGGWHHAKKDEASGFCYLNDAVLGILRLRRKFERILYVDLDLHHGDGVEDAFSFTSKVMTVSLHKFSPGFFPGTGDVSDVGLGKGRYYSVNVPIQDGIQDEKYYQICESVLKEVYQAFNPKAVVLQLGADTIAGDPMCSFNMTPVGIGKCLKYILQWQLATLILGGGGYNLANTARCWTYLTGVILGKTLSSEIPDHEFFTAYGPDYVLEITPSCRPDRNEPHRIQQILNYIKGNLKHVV
Described as above. Conditions: 15 minutes preincubation; substrate acetyl-Gly-Ala-(N-acetyl-Lys)-AMC. Type of experiment: biochemical. The protocol: as §1

Experiment [4] relates to Jurkat cells. Put plainly: Cell proliferation assay, growth inhibition by Alamar Blue. Type of experiment: cell-based. As to conditions: Homo sapiens, 72 h, Jurkat cells treated with compound for 3 days. How it is done:
Cell lines were obtained from DSMZ (Braunschweig, Germany) or ATCC (Manassas, Va.). Cells were grown in RPMI 1640 with 10% fetal bovine serum in a 5% CO2/air incubator at 37° C. Thapsigargin and BAPTA-AM were from Calbiochem (San Diego, Calif.). 3-((dimethylamino)methyl)-N-(2-(4-(hydroxycarbamoyl)phenoxy)ethyl)benzofuran-2-carboxamide is a broad-spectrum HDAC inhibitor which was synthesized as previously described. Other analogs with varying degrees of specificity towards the HDAC isoforms were synthesized as described herein.
Tumor cell lines and human umbilical vein endothelial cells (HUVEC) were cultured for at least two doubling times, and growth was monitored at the end of compound exposure using an Alamar Blue™ (Biosource, Camarillo, Calif.) fluorometric cell proliferation assay as recommended by the manufacturer. Compounds were assayed in triplicate wells in 96-well plates. The concentration required to inhibit cell growth by 50% (GI50) and 95% confidence intervals were estimated from nonlinear regression using a 4-parameter logistic equation. The effect of HDAC8 selective inhibitor compounds on cell proliferation in Jurkat cells was measured. Apoptosis was measured by Annexin-V flow cytommetry. Growth inhibition was measured by Alamar Blue assay. Cells were treated with compound for 3 days.
Background: Alamar Blue is a resazurin reagent that responds to reducing activity.

HDAC1, sequence (Q13547 whole entry, species assumed): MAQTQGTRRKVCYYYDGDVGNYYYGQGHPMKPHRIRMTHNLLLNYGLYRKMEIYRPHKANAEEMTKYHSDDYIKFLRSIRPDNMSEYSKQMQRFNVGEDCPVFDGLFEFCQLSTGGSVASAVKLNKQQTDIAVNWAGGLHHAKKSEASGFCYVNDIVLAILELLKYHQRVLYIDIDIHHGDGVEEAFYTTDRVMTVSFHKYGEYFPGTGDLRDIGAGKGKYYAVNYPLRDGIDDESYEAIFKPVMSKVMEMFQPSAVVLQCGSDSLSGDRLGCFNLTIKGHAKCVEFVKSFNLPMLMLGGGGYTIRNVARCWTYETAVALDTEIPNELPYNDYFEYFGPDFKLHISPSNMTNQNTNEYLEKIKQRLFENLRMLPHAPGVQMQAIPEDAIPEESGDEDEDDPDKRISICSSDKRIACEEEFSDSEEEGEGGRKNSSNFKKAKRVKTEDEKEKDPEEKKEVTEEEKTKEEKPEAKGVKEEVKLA

As to `O=C(NO)c1ccc2ccn(CCOc3ccccc3)c2c1` [Compound 316, N-hydroxy-1-(2-phenoxyethyl)-1H-indole-6-carboxamide], the IC50 (in general, the midpoint of a concentration-inhibition curve) is above 10000 nM in experiment [1], above 10000 nM in experiment [2] and below 1000 nM in experiment [3]. For the same compound, in experiment [4], the GI50 (in general, the concentration giving 50% growth inhibition) is 2800 nM.
